In patent US9334246B2, “Substituted triazines for malaria treatment and chemoprophylaxis” (The United States of America, as represented by the …, priority 2013, dated 2016):
Converted amounts (≈) assume the structure as drawn.

Columns and labels:
Assay type in all cases: cell-based, Plasmodium falciparum
[1] = system: P. falciparum W2; assay: Malaria SYBR Green Fluorescence Assay, W2 strain
[2] = system: P. falciparum D6; assay: Malaria SYBR Green Fluorescence Assay, D6 strain
[3] = system: P. falciparum C235; assay: Malaria SYBR Green Fluorescence Assay, C235 strain
[4] = Plasmodium falciparum, SYBR Green Assay

| Molecule | W2 (SYBR Green Assay IC50) [1] | D6 (SYBR Green Assay IC50) [2] | C235 (SYBR Green Assay IC50) [3] | W2 ([1]; SYBR Green Assay) | D6 ([2]; SYBR Green Assay) | C235 ([3]; SYBR Green Assay) | other results |
| --- | --- | --- | --- | --- | --- | --- | --- |
| CN1CCC(CNc2nc(-c3ccccc3)nc(C(Cl)(Cl)Cl)n2)CC1 [Cmpd 512] | 0.03 µg/mL | 0.103 µg/mL | 0.057 µg/mL | – | – | – | – |
| COc1cc(OC)cc(-c2nc(NCCC3CCCN3C)nc(C(Cl)(Cl)Cl)n2)c1 (stereo not drawn) [Cmpd 478] | 0.014 µg/mL | 0.042 µg/mL | 0.022 µg/mL | – | – | – | – |
| COC1═C(OC)C═C(C═C1)C1═NC(NCC2(N)CCCCC2)═NC(═N1)C(Cl)(Cl)Cl [Compound 669] | – | – | – | 10 ng/mL | 12 ng/mL | 23 ng/mL | – |
| FC(F)(F)OC1═CC═C(NC2═NC(═NC(═N2)C(Cl)(Cl)Cl)N2CC3CC2CN3)C═C1 [Compound 725] | – | – | – | 53 ng/mL | 64 ng/mL | 93 ng/mL | – |
| COc1ccccc1Nc1nc(NCCC2CCCN2C)nc(C(Cl)(Cl)Cl)n1 (stereo not drawn) [Cmpd 63] | – | – | – | 794 ng/mL | 603 ng/mL | 540 ng/mL | – |
| COc1cccc(-c2nc(NCCc3ccncc3)nc(C(Cl)(Cl)Cl)n2)c1 [Cmpd 151] | – | – | – | 133 ng/mL | 346 ng/mL | 549 ng/mL | – |
| CN1CCN(CC1)c2ccc(Nc3nc(nc(n3)C(Cl)(Cl)Cl)C(Cl)(Cl)Cl)cc2 [Compound 731] | – | – | – | 165 ng/mL | 229 ng/mL | 263 ng/mL | – |
| NC1CCN(CC1)C1═NC(═NC(═N1)C(Cl)(Cl)Cl)C1═CC(Cl)═CC(Cl)═C1 [Compound 631] | 0.153 µg/mL | 0.291 µg/mL | 0.219 µg/mL | – | – | – | – |
| CC(C)N1CCC(CNc2nc(-c3ccc(C(Cl)(Cl)Cl)cc3)nc(C(Cl)(Cl)Cl)n2)CC1 [Cmpd 492] | 0.033 µg/mL | 0.095 µg/mL | 0.052 µg/mL | – | – | – | – |
| Clc1cc(Cl)cc(-c2nc(N3CCCNCC3)nc(C(Cl)(Cl)Cl)n2)c1 [Cmpd 204] | – | – | – | 78 ng/mL | 231 ng/mL | 214 ng/mL | – |
| COc1cccc(-c2nc(NCC3CCN(C(C)C)CC3)nc(C(Cl)(Cl)Cl)n2)c1 [Cmpd 485] | 0.024 µg/mL | 0.094 µg/mL | 0.045 µg/mL | – | – | – | – |
| CN1CCN(c2nc(-c3cccc(Cl)c3)nc(C(Cl)(Cl)Cl)n2)CC1 [Cmpd 436] | 0.019 µg/mL | 0.155 µg/mL | 0.158 µg/mL | – | – | – | – |
| ClC(Cl)(Cl)c1nc(Nc2ccc(cc2)n3cccn3)nc(n1)C(Cl)(Cl)Cl [Compound 732] | – | – | – | 160 ng/mL | 386 ng/mL | 584 ng/mL | – |
| NC1CCN(CC1)C1═NC(═NC(═N1)C1═CC═C(C═C1)C1═CC═CC═C1)C(Cl)(Cl)Cl [Compound 634] | 0.062 µg/mL | 0.145 µg/mL | 0.088 µg/mL | – | – | – | – |
| CC(C)CN1CCC(Nc2nc(-c3cccc(Cl)c3)nc(C(Cl)(Cl)Cl)n2)CC1 [Compound 701, CC(C)CN1CCC(CC1)NC1═NC(═NC(═N1)C1═CC(Cl)═CC═C1)C(Cl)(Cl)Cl] | – | – | – | 195 ng/mL | 282 ng/mL | 351 ng/mL | – |
| CC(C)N1CCC(CNc2nc(-c3ccc4ccccc4c3)nc(C(Cl)(Cl)Cl)n2)CC1 [Cmpd 494] | 0.018 µg/mL | 0.038 µg/mL | 0.023 µg/mL | – | – | – | – |
| CN(C)CCCNc1nc(C(Cl)(Cl)Cl)nc(C(Cl)(Cl)Cl)n1.ClC(Cl)(Cl)c1ccc(C(Cl)(Cl)Cl)cc1 [Cmpd 604] | 0.363 µg/mL | 0.224 µg/mL | 0.628 µg/mL | – | – | – | – |
| CC(C)(C)c1ccc(cc1)c2nc(NCc3cccc(CN4CCCC4)c3)nc(n2)C(Cl)(Cl)Cl [Compound 735] | – | – | – | 60.65 ng/mL | 207.4 ng/mL | 257.5 ng/mL | – |
| CC(C)(C)c1ccc(-c2nc(NCCc3ccncc3)nc(C(Cl)(Cl)Cl)n2)cc1 [Cmpd 148] | – | – | – | 151 ng/mL | 621 ng/mL | 671 ng/mL | – |
| CC(C)N1CCC(CNc2nc(-c3ccccc3[N+](=O)[O-])nc(C(Cl)(Cl)Cl)n2)CC1 [Cmpd 497] | 0.176 µg/mL | 0.913 µg/mL | 0.469 µg/mL | – | – | – | – |
| CN(C)CCCNc1nc(-c2ccc(-c3ccccc3)cc2)nc(C(Cl)(Cl)Cl)n1 [Cmpd 445] | 0.116 µg/mL | 0.151 µg/mL | 0.189 µg/mL | – | – | – | – |
| CC(C)(C)c1ccc(-c2nc(N3CCC(N)CC3)nc(C(Cl)(Cl)Cl)n2)cc1 [Compound 624, CC(C)(C)C1═CC═C(C═C1)C1═NC(═NC(═N1)C(Cl)(Cl)Cl)N1CCC(N)CC1] | 0.043 µg/mL | 0.091 µg/mL | 0.062 µg/mL | – | – | – | – |
| CN1CCCC1CCNc1nc(-c2ccccc2[N+](=O)[O-])nc(C(Cl)(Cl)Cl)n1 (stereo not drawn) [Cmpd 524] | 0.028 µg/mL | 0.108 µg/mL | 0.07 µg/mL | – | – | – | – |
| CN1CCC(CNc2nc(-c3ccccc3[N+](=O)[O-])nc(C(Cl)(Cl)Cl)n2)CC1 [Cmpd 516] | 0.083 µg/mL | 0.292 µg/mL | 0.181 µg/mL | – | – | – | – |

| Molecule | W2 (SYBR Green Assay IC50) [1] | D6 (SYBR Green Assay IC50) [2] | C235 (SYBR Green Assay IC50) [3] | W2 ([1]; SYBR Green Assay) | D6 ([2]; SYBR Green Assay) | C235 ([3]; SYBR Green Assay) | other results |
| --- | --- | --- | --- | --- | --- | --- | --- |
| CSc1ccc(-c2nc(N3CCCN(CCO)CC3)nc(C(Cl)(Cl)Cl)n2)cc1 [Cmpd 457] | 0.08 µg/mL | 0.328 µg/mL | 0.168 µg/mL | – | – | – | – |
| COc1ccc(-c2nc(NCCc3ccncc3)nc(C(Cl)(Cl)Cl)n2)cc1 [Cmpd 147] | – | – | – | 77 ng/mL | 155 ng/mL | 233 ng/mL | – |
| CCN(CC)CCNc1nc(-c2cc(OC)cc(OC)c2)nc(C(Cl)(Cl)Cl)n1 [Cmpd 479] | 0.012 µg/mL | 0.038 µg/mL | 0.017 µg/mL | – | – | – | – |
| CCN1CCCC(Nc2nc(-c3cc(OC)cc(OC)c3)nc(C(Cl)(Cl)Cl)n2)C1 (stereo not drawn) [Cmpd 528] | 0.023 µg/mL | 0.035 µg/mL | 0.033 µg/mL | – | – | – | – |
| CC1═CC═C(C═C1)C1═NC(NCC2(N)CCCCC2)═NC(═N1)C(Cl)(Cl)Cl [Compound 660] | – | – | – | 9 ng/mL | 8 ng/mL | 17 ng/mL | – |
| COc1cc(OC)cc(-c2nc(NCC(C)(C)N)nc(C(Cl)(Cl)Cl)n2)c1 [Cmpd 481] | 0.012 µg/mL | 0.035 µg/mL | 0.017 µg/mL | – | – | – | – |
| COc1ncccc1Nc1nc(NCCC2CCCN2C)nc(C(Cl)(Cl)Cl)n1 (stereo not drawn) [Cmpd 346] | – | – | – | 52 ng/mL | 62 ng/mL | 116 ng/mL | – |
| COc1cc(OC)cc(-c2nc(NCC3CCN(C)CC3)nc(C(Cl)(Cl)Cl)n2)c1 [Cmpd 521] | 0.014 µg/mL | 0.045 µg/mL | 0.023 µg/mL | – | – | – | – |
| COc1ccc(-c2nc(NCC3CCN(C(C)C)CC3)nc(C(Cl)(Cl)Cl)n2)c2ccccc12 [Cmpd 498] | 0.066 µg/mL | 0.247 µg/mL | 0.125 µg/mL | – | – | – | – |
| NC1(CNC2═NC(═NC(═N2)C2═CC(Cl)═CC═C2)C(Cl)(Cl)Cl)CC1 [Compound 680] | – | – | – | 35 ng/mL | 100 ng/mL | 98 ng/mL | – |
| CC(=O)N1CCN(c2nc(-c3ccc(Cl)c(Cl)c3)nc(C(Cl)(Cl)Cl)n2)CC1 [Example 3, 1-(4-(4-(3,4-dichlorophenyl)-6-(trichloromethyl)-1,3,5-triazin-2-yl)piperazin-1-yl)ethan-1-one] | – | – | – | – | – | – | IC50 [1, 4]: 0.198 µg/mL (≈ 0.422 µM); IC50 [2, 4]: 0.687 µg/mL (≈ 1.46 µM); IC50 [3, 4]: 0.535 µg/mL (≈ 1.14 µM) |
| COc1ccc(-c2nc(NCc3ccccn3)nc(C(Cl)(Cl)Cl)n2)cc1 [Cmpd 168] | – | – | – | 338 ng/mL | 755 ng/mL | 898 ng/mL | – |
| CN1CCCN(c2nc(-c3ccccc3)nc(C(Cl)(Cl)Cl)n2)CC1 [Cmpd 409] | 0.043 µg/mL | 0.118 µg/mL | 0.119 µg/mL | – | – | – | – |
| CS(=O)(=O)c1ccc(-c2nc(NCc3ccccn3)nc(C(Cl)(Cl)Cl)n2)cc1 [Cmpd 177] | – | – | – | 186 ng/mL | 355 ng/mL | 565 ng/mL | – |
| CS(═O)(═O)C1═CC═C(C═C1)C1═NC(NCC2(N)CCCCC2)═NC(═N1)C(Cl)(Cl)Cl [Compound 665] | – | – | – | 76 ng/mL | 76 ng/mL | 147 ng/mL | – |
| CSC1═CC═C(C═C1)C1═NC(═NC(NC2CCN(CC(C)C)CC2)═N1)C(Cl)(Cl)Cl [Compound 695] | – | – | – | 418 ng/mL | 582 ng/mL | 675 ng/mL | – |
| CN1CCCN(c2nc(-c3ccc(Cl)cc3)nc(C(Cl)(Cl)Cl)n2)CC1 [Cmpd 287] | – | – | – | 60 ng/mL | 143 ng/mL | 232 ng/mL | – |
| CCN(CC)CCNc1nc(-c2ccc(Cl)cc2)nc(C(Cl)(Cl)Cl)n1 [Cmpd 286] | – | – | – | 2 ng/mL | 5 ng/mL | 10 ng/mL | – |
| CN1CCN(c2nc(-c3ccc(N4CCCC4)cc3)nc(C(Cl)(Cl)Cl)n2)CC1 [Cmpd 427] | 0.459 µg/mL | 0.676 µg/mL | 0.877 µg/mL | – | – | – | – |
| FC(F)(F)c1cccc(-c2nc(NCCc3cnccn3)nc(C(Cl)(Cl)Cl)n2)c1 [Cmpd 539] | 0.098 µg/mL | 0.325 µg/mL | 0.27 µg/mL | – | – | – | – |
| CC(C)(N)CNc1nc(-c2ccc(F)cc2)nc(C(Cl)(Cl)Cl)n1 [Cmpd 389] | 0.013 µg/mL | 0.03 µg/mL | 0.045 µg/mL | – | – | – | – |
| NC1(CNc2nc(-c3ccc(C(Cl)(Cl)Cl)cc3)nc(C(Cl)(Cl)Cl)n2)CCOCC1 [Cmpd 311] | – | – | – | 47 ng/mL | 81 ng/mL | 169 ng/mL | – |
| NC1CCN(c2nc(-c3ccccc3)nc(C(Cl)(Cl)Cl)n2)CC1 [Compound 621, NC1CCN(CC1)C1═NC(═NC(═N1)C1═CC═CC═C1)C(Cl)(Cl)Cl] | 0.101 µg/mL | 0.29 µg/mL | 0.319 µg/mL | – | – | – | – |
